Data on 2 compounds can be found in patent US20080312322A1, “Organic Compounds” (priority 2005, published 2008).

pIC50, pKi: −log10 of the molar value.

The target of assay [1] is T1, CRTh2 receptor (Homo sapiens, UniProt Q9Y5Y4).
T1 sequence (Q9Y5Y4 1-395): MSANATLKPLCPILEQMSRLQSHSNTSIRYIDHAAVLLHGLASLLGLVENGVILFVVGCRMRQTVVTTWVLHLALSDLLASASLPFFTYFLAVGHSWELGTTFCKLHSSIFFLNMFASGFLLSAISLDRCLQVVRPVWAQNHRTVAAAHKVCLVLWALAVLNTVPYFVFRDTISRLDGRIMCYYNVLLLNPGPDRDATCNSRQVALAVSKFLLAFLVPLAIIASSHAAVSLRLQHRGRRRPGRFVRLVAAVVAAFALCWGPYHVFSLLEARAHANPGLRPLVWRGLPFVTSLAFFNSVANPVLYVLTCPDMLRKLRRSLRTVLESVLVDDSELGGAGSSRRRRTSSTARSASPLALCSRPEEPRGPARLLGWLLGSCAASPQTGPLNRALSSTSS
As to the kind of experiment: CRTh2 cAMP functional assay. Format: cell-based. Also noted: expressed in transfected cells; host or cells: CHO cells. The conditions noted are these: CHO cells stably transfected with CRTh2; 10 nM PGD2 and 5 μM forskolin; cAMP Alphascreen. The protocol: CRTh2 cAMP Assay Protocol
Test compounds are prepared in assay stimulation buffer/DMSO and 5 μL/well is added to an assay plate (384-well white opti-plate).
CHO cells stably transfected with the CRTh2 receptor are prepared (dissociated from a cell culture flask and washed in PBS) to a concentration of 4×10^6/mL in assay stimulation buffer and added to the assay plate (10 μL/well).
The assay plate is incubated at room temperature on a shaker for 15 minutes.
A mix of agonist (10 nM PGD2) and 5 μM forskolin is prepared in assay stimulation buffer and added to the assay plate (5 μL/well).
In addition, a cAMP standard is serially diluted in assay stimulation buffer and added to separate empty wells on the assay plate (20 μL/well).
The assay plate is incubated at room temperature on a shaker for 60 minutes.
A cell lysis mix (lysis buffer containing Alphascreen™ donor beads and biotinylated cAMP) is prepared under darkened conditions 60 minutes prior to addition. Alphascreen™ acceptor beads are added to the lysis mix after 60 minutes. […]
The assay plate is sealed with Topseal-S™ and incubated in the dark at room temperature on a shaker for 45 minutes. The plate is then counted using a Packard Fusion™ instrument.
The resulting counts per minute are converted to nM cAMP by using the prepared cAMP standard curve. IC50 values are then determined using Prism™ software.
In general terms: Bead proximity is the source of the signal in Alpha formats.

The target in assay [2] is T1, CRTh2 receptor. In words: Scintillation Proximity Assay (SPA) binding assay, 3H PGD2. Details: expressed in transfected cells; host or cells: K562 or CHO cells, membranes. The following applies: membranes from K562 or CHO cells stably transfected with human CRTh2; 3H prostaglandin D2. The protocol: Scintillation Proximity Assay (SPA) protocol
Membranes are prepared from K562 or Chinese Hamster Ovary (CHO) cells stably transfected with human CRTh2 receptors.
The assay is performed in a 96-well U-bottomed polypropylene plate in a final volume of 100 μL and the components of the assay are added as follows: test compound in DMSO/assay buffer (25 μL), ^3H prostaglandin D2 (PGD2) (25 μL) and CRTh2 membrane fragments (50 μL). The assay is incubated at ambient temperature with shaking for 60 minutes, then harvested on to filter plates. The plate is dried for 2 hours, prior to addition of Micro-Scint 20M (50 μL) and sealing with TopSeal-S™. Plates are then counted using a Packard Top Count instrument, each well being counted for 20 minutes. Ki values are determined using Sigma Plot™ software.
On the technique in general: Scintillation proximity formats need no separation of bound from free tracer.

The pIC50 is the IC50 on a negative log10 scale, so that one unit is a factor of ten. Read a high pIC50 as a small IC50. As to `CCOC(=O)COc1ccc(Cl)cc1Cc1cc(Cl)ccc1OCC(=O)O` [Example 2, [4-chloro-2-(5-chloro-2-ethoxycarbonylmethoxy-benzyl)-phenoxy]-acetic acid], at CRTh2 receptor [1], the pIC50 is 7.17.
As usually defined, the pKi is the negative decadic logarithm of the Ki, by convention in mol/L. `CC(C)(Oc1ccc(Cl)cc1Cc1cc(Cl)ccc1OCC(=O)O)C(=O)O` [Example 13, 2-[2-(2-carboxymethoxy-5-chloro-benzyl)-4-chloro-phenoxy]-2-methyl-propionic acid] showed a pKi at CRTh2 receptor [2] of 7.24. Also, the negative-log IC50 (pIC50) on CRTh2 receptor [1] is 7.28.
